Measurements published in publication doi:10.1101/2024.10.14.618151v1 (bioRxiv, 2024).
Non-standard residues stand in square brackets, D forms with d. Residues, ends and D or L forms follow the SMILES beside them. No end group written: not given here. pGlu = O=C1CC[C@@H](C(=O)O)N1

Tested on: PBL migration across TNF-α/IFN-γ-stimulated endothelial cells (HDBEC)
Conditions: for IC50: 24 h

| Compound | IC50 [nM] | effect on lymphocyte migration in vitro |
| --- | --- | --- |
| C[C@H](NC(=O)CNC(=O)[C@@H]1CCC(=O)N1)C(N)=O [[PyroGlu]-GA-NH2] ([pGlu]-Gly-Ala-NH2) | 0.0032 | – |
| CC(C)[C@@H](NC(=O)[C@H](N)[C@H](C)O)C(=O)N[C@H](CO)C(N)=O [tvs-NH2] (H-[dT]-[dV]-[dS]-NH2) | 0.024 | – |
| SVTEQGA | – | full activity |
| SVTEQGAELSNEER [PEPITEM] | 0.045 | – |
